Data on 1 compound can be found in publication PMC6326999, “Functionalized Magnetic Bacterial Cellulose Beads as Carrier for Lecitase® Ultra Immobilization” (Applied Biochemistry and Biotechnology, 2018).

The test system of this experiment is T1, Lecitase® Ultra (LU).
T1 construct: gene LIP; commercial preparation (Sigma-Aldrich), free enzyme
The experiment can be described thus: absorbance at […] nm, hydrolysis initial rates, non-linear Michaelis-Menten fit. In kind it is biochemical. To be noted: free enzyme; 50 mM Tris-Cl pH 8.5, 0.25% Triton X-100, 30 °C (standard assay); commercial preparation; kcat column headed 'Kcat × 10^3 (s^-1)'.

On to `CCCCCCCCCCCCCCCC(=O)Oc1ccc([N+](=O)[O-])cc1` [4-nitrophenol palmitate], for which the Michaelis constant (Km) (as a rule, the substrate concentration at which the rate is half of its maximum) stood at 450 ± 50 µM.
